Each structure is given as a SMILES string. Like-named read-outs stand apart in the source and are kept apart here.

In the test the target is T1, Androgen Receptor (Homo sapiens, UniProt P10275).
T1 construct: endogenous in cells; host or cells: VCaP cells
T1 sequence (P10275 1-920): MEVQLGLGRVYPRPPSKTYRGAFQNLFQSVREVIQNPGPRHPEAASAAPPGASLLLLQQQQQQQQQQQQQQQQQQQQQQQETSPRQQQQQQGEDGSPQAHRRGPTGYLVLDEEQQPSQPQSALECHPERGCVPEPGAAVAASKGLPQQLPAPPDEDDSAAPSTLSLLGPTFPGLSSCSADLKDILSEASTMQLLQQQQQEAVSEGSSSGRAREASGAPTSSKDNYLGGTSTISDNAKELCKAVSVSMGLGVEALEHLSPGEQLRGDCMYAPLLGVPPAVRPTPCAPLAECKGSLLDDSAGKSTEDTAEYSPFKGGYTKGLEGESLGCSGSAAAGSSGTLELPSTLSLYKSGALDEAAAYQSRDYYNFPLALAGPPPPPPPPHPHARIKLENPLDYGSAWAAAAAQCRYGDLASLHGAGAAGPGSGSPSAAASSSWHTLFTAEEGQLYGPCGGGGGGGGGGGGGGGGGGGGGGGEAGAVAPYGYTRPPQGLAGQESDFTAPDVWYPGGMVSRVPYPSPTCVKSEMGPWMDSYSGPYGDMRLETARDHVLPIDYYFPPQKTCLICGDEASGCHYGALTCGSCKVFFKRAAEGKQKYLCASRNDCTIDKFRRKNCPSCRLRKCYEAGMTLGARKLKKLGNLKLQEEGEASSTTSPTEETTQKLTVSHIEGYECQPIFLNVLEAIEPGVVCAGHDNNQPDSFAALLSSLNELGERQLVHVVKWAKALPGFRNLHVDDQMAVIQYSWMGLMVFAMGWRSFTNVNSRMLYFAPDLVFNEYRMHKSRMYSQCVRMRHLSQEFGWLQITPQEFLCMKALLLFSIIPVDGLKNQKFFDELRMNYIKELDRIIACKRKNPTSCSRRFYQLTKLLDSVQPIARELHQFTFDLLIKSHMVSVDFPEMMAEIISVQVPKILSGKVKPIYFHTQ
Description: Androgen Receptor ELISA assay (PathScan AR ELISA) in VCaP cells: AR degradation, Dmax and DC50. Type of test: cell-based. The essentials:
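VCaP cells in phenol red-free RPMI with 5% charcoal-stripped FBS were grown at least 3 days, then given compound as 7 half-log doses in 0.1% DMSO with 0.1 nM R1881 for 24 h. Lysates went into a sandwich AR ELISA with TMB read at 450 nm.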
(In an ELISA, binding on a coated surface is turned into a signal by an enzyme label.)

Where [1] appears, read: read-out: VCaP DC50; VCaP cells; Table 36.
The mark [2] stands for this setting: VCaP cells; Table 36; read-out: VCaP DC50.
Where [3] appears, read: VCaP, read-out: VCaP Dmax (%), VCaP cells; Table 36.
[4] abbreviates: VCaP, VCaP cells; Table 36; read-out: VCaP Dmax (%).

As usually defined, the Dmax is the greatest extent of degradation seen. One may read the DC50 as the concentration giving 50% degradation. With `Cc1ncsc1-c1ccc([C@H](CO)NC(=O)C2C[C@@H](O)CN2C(=O)C(NC(=O)CN2C3CCC2CN(CCCc2ccc(C(=O)NC4C(C)(C)C(Oc5ccc(C#N)c(Cl)c5)C4(C)C)cc2)C3)C(C)(C)C)cc1` (stereo partly drawn) [Example 828, (2S,4R)-1-((2S)-2-(2-(3-(3-(4-(((1r,3r)-3-(3-chloro-4-cyanophenoxy)-2,2,4,4-tetramethylcyclobutyl)carbamoyl)phenyl)propyl)-3,8-diazabicyclo[3.2.1]octan-8-yl)acetamido)-3,3-dimethylbutanoyl)-4-hydroxy-N-((R)-2-hydroxy-1-(4-(4-methylthiazol-5-yl)phenyl)ethyl) pyrrolidine-2-carboxamide], the Dmax (VCaP, read-out: VCaP Dmax (%)) is over 71%. Under setting [1], the DC50 was under 50 nM.

As to `Cc1ncsc1-c1ccc([C@H](C)NC(=O)[C@@H]2C[C@@H](O)CN2C(=O)[C@@H](NC(=O)CN2CCN(CCC3CCN(c4ccc(C(=O)N[C@H]5C(C)(C)[C@H](Oc6ccc(C#N)c(Cl)c6)C5(C)C)cn4)C3)CC2)C(C)(C)C)cc1` (stereo partly drawn) [Example 829, N-((1r,3r)-3-(3-chloro-4-cyanophenoxy)-2,2,4,4-tetramethylcyclobutyl)-6-(3-(2-(4-(2-(((S)-1-((2S,4R)-4-hydroxy-2-(((S)-1-(4-(4-methylthiazol-5-yl)phenyl)ethyl)carbamoyl)pyrrolidin-1-yl)-3,3-dimethyl-1-oxobutan-2-yl)amino)-2-oxoethyl)piperazin-1-yl)ethyl)pyrrolidin-1-yl)nicotinamide], the DC50 under setting [2] is under 50 nM. Where the note is “VCaP, read-out: VCaP Dmax (%)”, the Dmax is over 71%.

In the case of `Cc1ncsc1-c1ccc([C@H](C)NC(=O)[C@@H]2C[C@@H](O)CN2C(=O)[C@H](c2cc(CCCCN3CCN(c4ccc(C(=O)N[C@H]5C(C)(C)[C@H](Oc6ccc(C#N)c(Cl)c6)C5(C)C)cn4)CC3)no2)C(C)C)cc1` [Example 830, N-((1r,3r)-3-(3-chloro-4-cyanophenoxy)-2,2,4,4-tetramethylcyclobutyl)-6-(4-(4-(5-((S)-1-((2S, 4R)-4-hydroxy-2-(((S)-1-(4-(4-methylthiazol-5-yl)phenyl)ethyl)carbamoyl)pyrrolidin-1-yl)-3-methyl-1-oxobutan-2-yl)isoxazol-3-yl)butyl)piperazin-1-yl)nicotinamide], the DC50 under setting [2] was over 501 nM. Also, under setting [3], the Dmax is under 25%.

On to `Cc1ncsc1-c1ccc([C@H](C)NC(=O)[C@@H]2C[C@@H](O)CN2C(=O)[C@@H](c2cc(CCCCN3CCN(c4ccc(C(=O)N[C@H]5C(C)(C)[C@H](Oc6ccc(C#N)c(Cl)c6)C5(C)C)cn4)CC3)no2)C(C)C)cc1` [Example 831, N-((1r,3r)-3-(3-chloro-4-cyanophenoxy)-2,2,4,4-tetramethylcyclobutyl)-6-(4-(4-(5-((R)-1-((2S, 4R)-4-hydroxy-2-(((S)-1-(4-(4-methylthiazol-5-yl)phenyl)ethyl)carbamoyl)pyrrolidin-1-yl)-3-methyl-1-oxobutan-2-yl)isoxazol-3-yl)butyl)piperazin-1-yl)nicotinamide], for which the DC50 under setting [2] was under 50 nM. For the same compound, under setting [3], the Dmax was over 71%.

With `Cc1ncsc1-c1ccc([C@H](C)NC(=O)[C@@H]2C[C@@H](O)CN2C(=O)[C@@H](NC(=O)CN[C@H]2C[C@H](OC3CCN(c4ccc(C(=O)N[C@H]5C(C)(C)[C@H](Oc6ccc(C#N)c(Cl)c6)C5(C)C)cn4)CC3)C2)C(C)(C)C)cc1` [Example 832, N-((1r,3r)-3-(3-chloro-4-cyanophenoxy)-2,2,4,4-tetramethylcyclobutyl)-6-(4-((1S,3r)-3-((2-(((S)-1-((2S,4R)-4-hydroxy-2-(((S)-1-(4-(4-methylthiazol-5-yl)phenyl)ethyl)carbamoyl)pyrrolidin-1-yl)-3,3-dimethyl-1-oxobutan-2-yl)amino)-2-oxoethyl)amino)cyclobutoxy)piperidin-1-yl)nicotinamide], the DC50 under setting [2] was under 50 nM. In addition, under “VCaP, read-out: VCaP Dmax (%)”, the Dmax was over 71%.

With `Cc1ncsc1-c1ccc([C@H](C)NC(=O)[C@@H]2C[C@@H](O)CN2C(=O)[C@@H](NC(=O)CN2CCN(CCC3CCN(c4ccc(C(=O)N[C@H]5C(C)(C)[C@H](Oc6ccc(C#N)c(Cl)c6)C5(C)C)cn4)CC3)CC2)C(C)(C)C)cc1` [Example 833, N-((1r,3r)-3-(3-chloro-4-cyanophenoxy)-2,2,4,4-tetramethylcyclobutyl)-6-(4-(2-(4-(2-(((S)-1-((2S,4R)-4-hydroxy-2-(((S)-1-(4-(4-methylthiazol-5-yl)phenyl)ethyl)carbamoyl)pyrrolidin-1-yl)-3,3-dimethyl-1-oxobutan-2-yl)amino)-2-oxoethyl)piperazin-1-yl)ethyl)piperidin-1-yl)nicotinamide], under setting [2], the DC50 was under 50 nM. Moreover, the maximal degradation (Dmax) under setting [4] is over 71%.

Regarding `Cc1ncsc1-c1ccc(C(CO)NC(=O)[C@@H]2CC(O)CN2C(=O)[C@@H](NC(=O)CN2CCN(CCN3CCN(c4ccc(C(=O)NC5C(C)(C)C(Oc6ccc(C#N)c(Cl)c6)C5(C)C)cn4)CC3)CC2)C(C)(C)C)cc1` (stereo partly drawn) [Example 834, N-((1r,3r)-3-(3-chloro-4-cyanophenoxy)-2,2,4,4-tetramethylcyclobutyl)-6-(4-(2-(4-(2-(((S)-1-((2S,4R)-4-hydroxy-2-(((R)-2-hydroxy-1-(4-(4-methylthiazol-5-yl)phenyl)ethyl)carbamoyl)pyrrolidin-1-yl)-3,3-dimethyl-1-oxobutan-2-yl)amino)-2-oxoethyl)piperazin-1-yl)ethyl)piperazin-1-yl)nicotinamide], the DC50 under setting [2] is under 50 nM. Under setting [4], the Dmax was over 71%.

Take `Cc1ncsc1-c1ccc([C@H](C)NC(=O)C2C[C@@H](O)CN2C(=O)C(NC(=O)CN2C3CCC2CN(CCCCc2ccc(C(=O)N[C@H]4C(C)(C)[C@H](Oc5ccc(C#N)c(Cl)c5)C4(C)C)cc2)C3)C(C)(C)C)cc1` (stereo partly drawn) [Example 835, (2S,4R)-1-((2S)-2-(2-(3-(4-(4-(((1r,3r)-3-(3-chloro-4-cyanophenoxy)-2,2,4,4-tetramethylcyclobutyl)carbamoyl)phenyl)butyl)-3,8-diazabicyclo[3.2.1]octan-8-yl)acetamido)-3,3-dimethylbutanoyl)-4-hydroxy-N-((S)-1-(4-(4-methylthiazol-5-yl)phenyl)ethyl) pyrrolidine-2-carboxamide]: the Dmax (VCaP, read-out: VCaP Dmax (%)) is over 71%. Also, the 50% degradation concentration (DC50) under setting [1] was under 50 nM.

Take `Cc1ncsc1-c1ccc([C@H](CO)NC(=O)[C@@H]2C[C@@H](O)CN2C(=O)[C@@H](NC(=O)CN2C3CCC2CN(CCCCc2ccc(C(=O)N[C@H]4C(C)(C)[C@H](Oc5ccc(C#N)c(Cl)c5)C4(C)C)cc2)C3)C(C)(C)C)cc1` [Example 836, (2S,4R)-1-((2S)-2-(2-(3-(4-(4-(((1r,3r)-3-(3-chloro-4-cyanophenoxy)-2,2,4,4-tetramethylcyclobutyl)carbamoyl)phenyl)butyl)-3,8-diazabicyclo[3.2.1]octan-8-yl)acetamido)-3,3-dimethylbutanoyl)-4-hydroxy-N-((R)-2-hydroxy-1-(4-(4-methylthiazol-5-yl)phenyl)ethyl) pyrrolidine-2-carboxamide]: the Dmax (VCaP, read-out: VCaP Dmax (%)) is over 71%. Besides, the half-maximal degradation concentration (DC50) under setting [1] is under 50 nM.

The values above are taken from patent publication US11427548B2 (Arvinas Operations, Inc., priority 2015, dated 2022).
